Results taken from ChEMBL document CHEMBL3351765, “Recent progress in sodium channel modulators for pain” (Bioorg Med Chem Lett, 2014).

How the values were obtained:
HEK293 = experiment: Selectivity ratio of IC50 for human Nav1.5 to IC50 for human Nav1.7 expressed in HEK293 cells; assay type: cell-based
[1] = target: T1, Sodium channel protein type 5 subunit alpha (Homo sapiens, UniProt Q14524); experiment: Inhibition of Nav1.5 (unknown origin) expressed in HEK293 cells by IonWorks patch-clamp method; assay type: cell-based
T1 sequence (Q14524 whole entry): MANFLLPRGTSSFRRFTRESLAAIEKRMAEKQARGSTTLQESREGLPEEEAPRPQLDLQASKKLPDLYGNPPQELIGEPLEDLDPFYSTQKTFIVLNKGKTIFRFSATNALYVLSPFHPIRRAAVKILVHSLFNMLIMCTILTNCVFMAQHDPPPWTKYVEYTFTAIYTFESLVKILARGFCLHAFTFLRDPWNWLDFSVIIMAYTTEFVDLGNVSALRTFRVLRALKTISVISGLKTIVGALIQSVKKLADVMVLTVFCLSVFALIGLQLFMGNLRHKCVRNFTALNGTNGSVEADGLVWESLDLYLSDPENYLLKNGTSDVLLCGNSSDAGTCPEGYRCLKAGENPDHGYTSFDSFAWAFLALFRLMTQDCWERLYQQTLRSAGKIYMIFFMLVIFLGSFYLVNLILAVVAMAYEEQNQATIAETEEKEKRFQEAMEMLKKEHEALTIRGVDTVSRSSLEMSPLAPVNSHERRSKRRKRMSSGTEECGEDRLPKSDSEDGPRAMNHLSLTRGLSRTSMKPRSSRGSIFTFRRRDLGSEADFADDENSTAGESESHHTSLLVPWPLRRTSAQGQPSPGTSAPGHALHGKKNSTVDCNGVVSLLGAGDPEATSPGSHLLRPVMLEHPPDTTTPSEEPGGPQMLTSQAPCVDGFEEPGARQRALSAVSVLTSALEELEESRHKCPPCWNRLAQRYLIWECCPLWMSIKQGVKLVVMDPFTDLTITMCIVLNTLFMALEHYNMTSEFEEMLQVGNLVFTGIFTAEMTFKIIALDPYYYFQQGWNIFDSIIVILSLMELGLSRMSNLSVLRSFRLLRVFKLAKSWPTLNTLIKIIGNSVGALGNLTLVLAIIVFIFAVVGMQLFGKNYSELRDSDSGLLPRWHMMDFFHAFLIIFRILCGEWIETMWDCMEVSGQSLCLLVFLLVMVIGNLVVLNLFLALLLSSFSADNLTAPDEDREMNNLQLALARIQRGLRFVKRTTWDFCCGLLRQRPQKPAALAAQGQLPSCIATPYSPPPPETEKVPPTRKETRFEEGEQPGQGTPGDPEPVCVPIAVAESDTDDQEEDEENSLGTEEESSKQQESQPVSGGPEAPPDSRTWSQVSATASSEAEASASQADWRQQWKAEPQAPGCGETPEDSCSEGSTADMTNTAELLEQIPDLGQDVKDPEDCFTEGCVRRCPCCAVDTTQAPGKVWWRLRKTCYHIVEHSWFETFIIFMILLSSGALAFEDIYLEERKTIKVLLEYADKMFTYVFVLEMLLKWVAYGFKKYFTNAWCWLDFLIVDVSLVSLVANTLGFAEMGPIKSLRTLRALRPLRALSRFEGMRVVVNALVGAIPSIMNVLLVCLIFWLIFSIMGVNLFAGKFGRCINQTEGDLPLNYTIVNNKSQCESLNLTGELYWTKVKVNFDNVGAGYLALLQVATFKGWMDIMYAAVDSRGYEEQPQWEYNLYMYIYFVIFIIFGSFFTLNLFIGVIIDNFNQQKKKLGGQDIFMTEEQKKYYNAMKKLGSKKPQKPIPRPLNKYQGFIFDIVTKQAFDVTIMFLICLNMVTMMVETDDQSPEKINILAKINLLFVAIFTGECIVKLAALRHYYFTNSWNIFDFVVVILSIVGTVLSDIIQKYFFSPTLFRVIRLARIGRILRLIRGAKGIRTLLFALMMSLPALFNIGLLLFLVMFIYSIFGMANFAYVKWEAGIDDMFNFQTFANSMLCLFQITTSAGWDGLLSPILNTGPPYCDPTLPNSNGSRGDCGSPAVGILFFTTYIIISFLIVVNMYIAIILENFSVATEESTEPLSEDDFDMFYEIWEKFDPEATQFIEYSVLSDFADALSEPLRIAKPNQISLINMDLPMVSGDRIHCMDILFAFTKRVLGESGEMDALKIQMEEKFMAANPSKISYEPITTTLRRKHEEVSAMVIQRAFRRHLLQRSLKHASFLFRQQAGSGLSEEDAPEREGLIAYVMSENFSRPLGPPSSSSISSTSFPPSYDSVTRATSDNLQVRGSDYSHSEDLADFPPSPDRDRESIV

[2] = target: T2, Sodium channel protein type 9 subunit alpha (Homo sapiens, UniProt Q15858); experiment: Inhibition of human Nav1.7 expressed in HEK cells by patch-clamp method; assay type: cell-based, HEK293
T2 sequence (Q15858 whole entry): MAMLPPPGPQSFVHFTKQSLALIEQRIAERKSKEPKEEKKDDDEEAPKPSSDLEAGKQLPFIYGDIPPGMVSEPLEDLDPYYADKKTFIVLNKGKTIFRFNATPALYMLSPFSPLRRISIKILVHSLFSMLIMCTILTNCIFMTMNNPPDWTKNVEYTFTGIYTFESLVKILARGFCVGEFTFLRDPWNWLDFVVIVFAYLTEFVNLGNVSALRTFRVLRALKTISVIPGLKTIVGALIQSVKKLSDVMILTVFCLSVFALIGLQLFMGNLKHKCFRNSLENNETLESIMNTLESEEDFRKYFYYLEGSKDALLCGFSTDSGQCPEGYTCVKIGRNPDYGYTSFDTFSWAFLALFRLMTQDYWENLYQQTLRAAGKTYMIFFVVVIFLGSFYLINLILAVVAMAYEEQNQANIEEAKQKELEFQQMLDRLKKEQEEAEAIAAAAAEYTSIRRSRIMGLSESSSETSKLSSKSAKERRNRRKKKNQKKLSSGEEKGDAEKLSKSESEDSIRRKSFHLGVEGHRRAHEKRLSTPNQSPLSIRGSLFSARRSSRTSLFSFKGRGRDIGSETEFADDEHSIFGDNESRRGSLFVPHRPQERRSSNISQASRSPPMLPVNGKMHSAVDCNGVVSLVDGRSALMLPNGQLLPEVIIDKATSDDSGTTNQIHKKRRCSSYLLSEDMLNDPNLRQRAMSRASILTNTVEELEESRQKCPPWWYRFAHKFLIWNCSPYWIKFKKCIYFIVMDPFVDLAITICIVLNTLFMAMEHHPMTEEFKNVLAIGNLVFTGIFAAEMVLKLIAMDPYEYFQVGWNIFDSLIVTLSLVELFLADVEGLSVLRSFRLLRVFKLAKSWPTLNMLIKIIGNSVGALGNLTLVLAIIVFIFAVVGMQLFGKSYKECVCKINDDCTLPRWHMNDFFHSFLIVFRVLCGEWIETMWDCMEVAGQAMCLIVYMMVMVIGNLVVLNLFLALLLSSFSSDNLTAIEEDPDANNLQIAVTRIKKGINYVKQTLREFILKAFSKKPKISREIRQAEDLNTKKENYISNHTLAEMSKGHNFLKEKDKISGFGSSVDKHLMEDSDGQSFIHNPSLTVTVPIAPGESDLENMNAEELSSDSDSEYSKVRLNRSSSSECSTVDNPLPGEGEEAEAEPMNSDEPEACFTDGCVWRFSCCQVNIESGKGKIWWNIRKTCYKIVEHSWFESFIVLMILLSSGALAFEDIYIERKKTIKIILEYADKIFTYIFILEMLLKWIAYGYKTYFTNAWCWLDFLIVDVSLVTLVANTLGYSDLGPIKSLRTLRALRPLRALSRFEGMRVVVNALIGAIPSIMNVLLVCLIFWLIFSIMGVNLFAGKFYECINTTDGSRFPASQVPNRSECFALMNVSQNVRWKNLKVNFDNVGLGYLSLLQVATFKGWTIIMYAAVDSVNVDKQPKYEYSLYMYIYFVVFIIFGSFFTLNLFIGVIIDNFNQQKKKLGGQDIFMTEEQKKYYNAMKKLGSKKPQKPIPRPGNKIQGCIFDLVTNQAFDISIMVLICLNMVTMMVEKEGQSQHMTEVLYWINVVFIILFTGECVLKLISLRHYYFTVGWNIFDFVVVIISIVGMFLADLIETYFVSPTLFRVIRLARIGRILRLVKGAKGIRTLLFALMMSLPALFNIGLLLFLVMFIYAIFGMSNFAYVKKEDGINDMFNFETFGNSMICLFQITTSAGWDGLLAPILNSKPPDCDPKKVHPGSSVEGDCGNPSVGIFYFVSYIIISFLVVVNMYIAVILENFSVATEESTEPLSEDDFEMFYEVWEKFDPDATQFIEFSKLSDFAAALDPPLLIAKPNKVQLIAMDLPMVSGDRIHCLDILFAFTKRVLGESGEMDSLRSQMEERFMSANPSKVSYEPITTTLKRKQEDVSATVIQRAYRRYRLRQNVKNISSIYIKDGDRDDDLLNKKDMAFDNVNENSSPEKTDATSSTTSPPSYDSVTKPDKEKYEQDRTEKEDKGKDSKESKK

[3] = target: T2, Sodium channel protein type 9 subunit alpha; experiment: Inhibition of human Nav1.7 expressed in HEK293 cells by FLIPR method; assay type: cell-based
[4] = target: T1, Sodium channel protein type 5 subunit alpha; experiment: Inhibition of Nav1.5 (unknown origin)
[5] = target: T2, Sodium channel protein type 9 subunit alpha; experiment: Inhibition of Nav1.7 (unknown origin)
[6] = target: T2, Sodium channel protein type 9 subunit alpha; experiment: Inhibition of human Nav1.7 expressed in HEK293 cells by electrophysiology method; assay type: cell-based
[7] = target: T2, Sodium channel protein type 9 subunit alpha; experiment: Inhibition of human Nav1.7 expressed in HEK cells by whole-cell patch-clamp technique; assay type: cell-based, HEK293
[8] = target: T2, Sodium channel protein type 9 subunit alpha; experiment: Inhibition of human Nav1.7 expressed in HEK293 cells […] by QPatch method; assay type: cell-based
[9] = target: T2, Sodium channel protein type 9 subunit alpha; experiment: Inhibition of Nav1.7 (unknown origin) expressed in HEK293 cells by PatchXpress method; assay type: cell-based

In the case of `C[C@H](c1ccccc1C1(F)CNC1)n1c(=O)oc2cc(S(=O)(=O)Nc3nccs3)c(F)cc21`, the Ratio IC50 (HEK293) is reported as 5540.
Work on `O=S(=O)(Nc1ncns1)N1CCc2c(cccc2-c2ccc(C(F)(F)F)cc2C2=CCNCC2)C1` yielded an IC50 [1] of over 10 µM.
With `O=S(=O)(Nc1ncns1)c1ccc2c(c1)OCCN2c1ccc(C(F)(F)F)cc1Cl` the IC50 [1] was over 10 µM.
In the case of `CCOC1CC(c2scnc2C)OC2(CCN(C(=O)c3ccc(OC(C)C)c(C)c3)CC2)C1` (centres undefined), the IC50 [2] is reported as under 2 µM.
`O=C(NCC1CCCCN1)c1ccc(Oc2cc(C(F)(F)F)cc(C(F)(F)F)c2)cc1` (centres undefined) gave an IC50 [3] of 1.15 µM.
Molecule `Nc1noc2ccc(-c3cc(Cl)ccc3Oc3cc(F)c(S(=O)(=O)Nc4ncns4)cc3F)cc12` has an IC50 [4] of over 1 µM.
`O=S(=O)(Nc1ncns1)c1cc(F)c(OC[C@@H]2CNCC[C@H]2c2ccc(Cl)cc2)cc1F` showed an IC50 [5] of 0.0033 µM.
`CCCCCN1C(=O)COCC1c1cncc(-c2ccc(OC(F)(F)F)cc2)c1` (centres undefined) was tested, and the IC50 [3] was 0.77 µM.
Work on `Cc1oc2nc(-c3ccccc3Cl)nn2c1CNCCc1ccccc1Cl` yielded an IC50 [3] of 0.62 µM.
Work on `NC(=O)c1cnc(-c2ccc(Oc3cc(F)cc(Cl)c3)cc2)nc1[C@@H](O)CO` yielded a Ki [6] of 0.027 µM and an IC50 [3] of 0.067 µM.
`CC1(COc2ccc(-n3nc(C4CC4)c4cc(C(=O)NS(C)(=O)=O)ccc43)cn2)CC1` showed an IC50 [7] of 0.13 µM.
`COc1cc(C(=O)N2CCC3(CC2)c2ccc(C(F)(F)F)n2CCN3C)ccc1OC(C)C` was tested, and the IC50 [2] was under 2 µM.
`CN(C)c1ccc(C(=O)NC2CC23CCN(c2ccccc2)CC3)c2ccccc12` (centres undefined) was tested, and the IC50 [3] was 0.237 µM.
With `Cc1ccc(OCC(C)C)c(-c2cccc([C@H]3CC[C@]4(CCN(C)C4=O)N3)c2)c1` the IC50 [8] was 0.398 µM.
`CCOc1ncccc1-c1cc(C(=O)NS(C)(=O)=O)ccc1Oc1ccc(Cl)c(C(F)(F)F)c1` gave an IC50 [7] of 0.035 µM.
Molecule `Cn1cc(-c2ccc(C(F)(F)F)cc2-c2cn[nH]c2)c2ccc(S(=O)(=O)Nc3ncns3)cc21` has an IC50 [9] of 0.038 µM and an IC50 [1] of over 10 µM.
In the case of `COc1cc(C(=O)N2CCC3(CC2)CN(CC(F)F)CC(c2ccccn2)O3)ccc1OC(C)C` (centres undefined), the IC50 [2] is reported as under 2 µM.
